“Also recorded” adds a separate entry of the source.
Columns and labels:
[1] = system: Caki‐1 xenograft tumors; assay: Cell proliferation (Ki67) and apoptosis (cleaved caspase 3) in tumor sections; type: in vivo, NOD.CB17‐Prkdc SCID/J mice; conditions: tumors at 21‐day trial endpoint
Description: Tissue sections were prepared by embedding in OCT (Thermo Fisher Scientific, Waltham, MA) followed by freezing at − 80°C. Vessel leakiness was evaluated following tail‐vein injection of 100 μL of Dextran Texas Red (Invitrogen). Vessel integrity was assessed after tail‐vein injection of 50 μL of lectin labelled with FITC (Vector Labs, Burlingame, CA). Apoptotic cells were visualized using an anti‐rabbit cleaved caspase 3 primary antibody (Cell Signaling Technology, Danvers, MA) and an goat‐anti‐rabbit Alexa Fluor 594 secondary antibody (Cell Signaling Technology); proliferating cells were visualized using an anti‐mouse Ki67 primary antibody (Cell Signaling Technology) and an goat‐anti‐mouse Alexa Fluor 488 secondary antibody (Cell Signaling Technology); DAPI containing ProLong Gold Antifade Mounting Medium (Cell Signaling Technology) was used to visualize the nuclei and mount the slide.
For all histological analyses, tumors from treated mice were compared to those of the vehicle control of the intervention trial. Samples from 4 mice per treatment group were analyzed. Stained samples were imaged at 20× magnification (ZEISS LSM 700). Cell proliferation and apoptosis were quantified one channel at a time using ImageJ (NIH, open access software) and were calculated as the percentage of Ki67 positive or cleaved caspase 3 positive cells per DAPI positive cells per field of view.

[2] = system: Caki‐1 xenograft tumors; assay: Protein expression in tumor lysates (Proteome Profiler arrays); type: in vivo, NOD.CB17‐Prkdc SCID/J mice; conditions: tumor lysate, 21‐day trial, vs vehicle
Description: Whole tumors were extracted at the trial endpoint and lysed. Before application to the array, protein concentration was determined by BCA. Then 150 µg of lysate was incubated for 24 hours with the Proteome Profiler Human XL Oncology Array (ARY026, R&D Systems) and Human Cell Stress Array (ARY018, R&D Systems). The relative expression levels of the proteases were determined according to the manufacturer's protocol, and signal intensities were compared using HLImage^++ software.

[3] = Hematology values (complete blood count) after the trial; type: in vivo, NOD-SCID mice
Description: Supplementary Table 2. Summary of hematology values (mean) for three specimens (collected 72h after the last dose of 10mg/kg/72h at the end of a 21 day trial (NOD/LtSz-Prkdscid/j. Complete blood counts of each group (n = 3 mice per group). Heparinized blood acquired from mice was assessed using the automatic Hematology Analyzer. Blood smears were carried out and fixed with methanol, stained, and observed under the microscope to carry out differential blood white cell counts.

[4] = automatic count, blood 72h after last dose, 21 day trial, mean n = 3

Question: For “[Cl2(p‐cymene)Ru(μ‐dppm)Au(IMes)]ClO4 [RANCE‐1]”, which “Apoptotic cells (cleaved caspase 3 positive) per DAPI positive cells” value [1] is on record?
Answer: Its value is 1.6%.

Question: What about the “Proliferating cells (Ki67 positive) per DAPI positive cells” value [1] of the same substance?
Answer: The value was 2%.

Question: What about the “Reduction of tumor cell proliferation vs Veh” value [1] of the same substance?
Answer: Its value is 18 fold.

Question: What about the Decrease in apoptosis ([1]; vs Vehicle) of the same substance?
Answer: The Decrease in apoptosis was 0.4%.

Question: And the “Decrease in cell proliferation” value ([1]; vs Vehicle)?
Answer: Its value is 36%.

Question: What about the “CCL7 and CCL8 levels” value [2] of the same substance?
Answer: The value was “decrease”.

Question: What about the “Expression of CapG protein” value [2] of the same substance?
Answer: The value was “suppressed”.

Question: And the “Expression of HIF‐1a, ICAM, VE‐Cadherin, and VCAM‐1” value [2]?
Answer: The value was “significantly decreased”.

Question: What about the “Expression of growth factors VEGF, PDGF, FGF, EGFR, and HGRF” value [2] of the same substance?
Answer: Its value is “Significant reduction; also recorded: decrease”.

Question: And the “Expression of immune factors IL‐2R and GM‐CSF” value [2]?
Answer: Its value is “increase”.

Question: And the “M‐CSF expression” value [2]?
Answer: Its value is “increase”.

Question: And the “Prometastatic factors CtsB, CtsS, FoxC2, MMP‐2, MMP‐3, MMP‐8, ADAM8, and ADAMP9” value [2]?
Answer: The value was “significant decrease”.

Question: And the RBC ([3]; automatic count, blood 72h after last dose of 10mg/kg/72h, 21 day trial, mean n = 3, reference range 7.84-10.84)?
Answer: The RBC was 10.31 M/uL.

Question: What about the PDW [3, 4] of the same substance?
Answer: The PDW was 7.5 fL.

Question: What about the RDW-SD [3, 4] of the same substance?
Answer: Its RDW-SD is 31.03 fL.

Question: And the RET ([3]; automatic count, blood 72h after last dose, 21 day trial, mean n = 3, reference range 2.56-4.56, marked *▾)?
Answer: The RET was 2.03%.

Question: And the MPV ([3]; automatic count, blood 72h after last dose, 21 day trial, mean n = 3, reference range 4.2-6.3)?
Answer: The MPV was 6.53 fL.

Question: What about the HGB ([3]; automatic count, blood 72h after last dose, 21 day trial, mean n = 3, reference range 11.8-17.6) of the same substance?
Answer: Its HGB is 15.8 g/dL.

Question: What about the MCH ([3]; automatic count, blood 72h after last dose, 21 day trial, mean n = 3, reference range 13.7-17.2) of the same substance?
Answer: The MCH was 15.37 pg.

Question: And the RDW-CV ([3]; automatic count, blood 72h after last dose, 21 day trial, mean n = 3, reference range 17.3-20.3)?
Answer: Its RDW-CV is 23.5%.

Question: What about the MCHC ([3]; automatic count, blood 72h after last dose, 21 day trial, mean n = 3, reference range 25.1-31.3) of the same substance?
Answer: Its MCHC is 29.9 g/dL.

Question: And the HCT ([3]; automatic count, blood 72h after last dose, 21 day trial, mean n = 3, reference range 44.1-58.3)?
Answer: Its HCT is 52.8%.

Question: And the MCV ([3]; automatic count, blood 72h after last dose, 21 day trial, mean n = 3, reference range 51.1-58.6)?
Answer: Its MCV is 51.3 fL.

Question: And the “RET#” value ([3]; automatic count, blood 72h after last dose, 21 day trial, mean n = 3, reference range 294-444, marked *▾)?
Answer: The value was 192.67 K/uL.

Question: What about the PLT ([3]; automatic count, blood 72h after last dose, 21 day trial, mean n = 3, reference range 651-2055, marked *▾) of the same substance?
Answer: Its PLT is 1056.67 K/uL.

Question: What about the “Morphology (manual differential section)” value ([3]; blood smears, end of 21 day trial) of the same substance?
Answer: Its value is “Many neutrophils are hypersegmented”.

Question: What about the “Morphology (automatic count section)” value ([3]; blood smears, three specimens, end of 21 day trial) of the same substance?
Answer: Its value is 2+ PLT clumps. RBC morphology is within normal limits. 4+ polychromasia. 2+ acanthocytes. 4+ polychromasia. 2+ acanthocytes.

Question: And the “Physicochemical study and complete blood count” value ([3]; end of trial)?
Answer: The value was “no significant changes”.

Question: What about the “Band#” value ([3]; manual differential, blood 72h after last dose, 21 day trial) of the same substance?
Answer: Its value is 0 K/uL.

Question: What about the “MONO#” value ([3]; manual differential, blood 72h after last dose, 21 day trial, reference range 0.03-0.26) of the same substance?
Answer: The value was 0 K/uL.

Question: What about the “LYMPH#” value ([3]; manual differential, blood 72h after last dose, 21 day trial, reference range 0.23-1.56, marked *▴) of the same substance?
Answer: Its value is 0.6167 K/uL.

Question: And the “Neut#” value ([3]; manual differential, blood 72h after last dose, 21 day trial, reference range 0.54-3.16, marked *▴, ◎)?
Answer: The value was 8.55 K/uL.

Question: What about the MONO ([3]; manual differential, blood 72h after last dose, 21 day trial, reference range 1.71-10.93, marked *▾) of the same substance?
Answer: Its MONO is 2%.

Question: What about the LYMPH ([3]; manual differential, blood 72h after last dose, 21 day trial, reference range 13.51-42.61, marked *▾) of the same substance?
Answer: Its LYMPH is 15.67%.

Question: What about the NEUT ([3]; manual differential, blood 72h after last dose, 21 day trial, reference range 44.21-79.92, marked *▴) of the same substance?
Answer: Its NEUT is 80.67%.

From paper PMC6675714 (Cancer Medicine, 2019)
